Results on 37 compounds are retold here after BindingDB's records for doi:10.1021/cc060110n (University of Mississippi, 2007).

Where only a bound is given, the exact number is not on record here.

Assay [1] addresses L-lactate dehydrogenase B chain (Bos taurus, UniProt Q5E9B1). As to the kind of experiment: Enzyme Assay. The source says: (§1) Enzyme assay using recombinant pfLDH and mLDH (bovine heart).
The next assay has as its target L-lactate dehydrogenase (Plasmodium falciparum, UniProt B9UDZ5). Put plainly: Enzyme Assay.
From the text: as §1

L-lactate dehydrogenase, sequence (B9UDZ5 whole entry): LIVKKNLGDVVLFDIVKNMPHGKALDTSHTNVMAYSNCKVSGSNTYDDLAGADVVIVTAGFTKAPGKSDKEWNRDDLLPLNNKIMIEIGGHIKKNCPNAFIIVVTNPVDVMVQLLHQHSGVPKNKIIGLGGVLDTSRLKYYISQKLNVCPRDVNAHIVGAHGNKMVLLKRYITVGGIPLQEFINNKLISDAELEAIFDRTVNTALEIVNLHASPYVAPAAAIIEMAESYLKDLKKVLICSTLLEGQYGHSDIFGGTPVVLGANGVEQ
L-lactate dehydrogenase B chain, sequence (Q5E9B1 whole entry): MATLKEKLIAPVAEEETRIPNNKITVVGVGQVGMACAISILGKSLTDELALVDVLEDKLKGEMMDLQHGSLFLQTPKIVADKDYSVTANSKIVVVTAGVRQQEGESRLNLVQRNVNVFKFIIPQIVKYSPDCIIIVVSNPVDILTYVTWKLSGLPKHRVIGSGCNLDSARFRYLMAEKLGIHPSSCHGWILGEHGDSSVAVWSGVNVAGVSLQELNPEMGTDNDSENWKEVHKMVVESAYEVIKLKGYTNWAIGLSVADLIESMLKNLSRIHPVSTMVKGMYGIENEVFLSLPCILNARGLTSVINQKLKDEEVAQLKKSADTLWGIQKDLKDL

Regarding `COc1ccccc1NC(=O)C(=O)O` [Oxamic Acid/Ester, 6], the IC50 (in assay [1]; at L-lactate dehydrogenase) was more than 200 µM in each case. As for `Cc1cccc(N(C(=O)C(=O)O)c2ccccc2)c1` [Oxamic Acid/Ester, 7], the values for the 50% inhibitory concentration (IC50) (in assay [1]; on L-lactate dehydrogenase) were 107 µM and 97.9 µM, respectively. `CCc1ccccc1N(Cc1ccccc1)C(=O)C(=O)O` [Oxamic Acid/Ester, 8]: the IC50 in assay [1] was 158 µM; at L-lactate dehydrogenase it was more than 200 µM. As for `CCCCCCCNC(=O)C(=O)O` [Oxamic Acid/Ester, 10], the IC50 was more than 200 µM in assay [1] and 160 µM against L-lactate dehydrogenase. `C=CCN(C)C(=O)C(=O)O` [Oxamic Acid/Ester, 11]: the IC50 (in assay [1]; against L-lactate dehydrogenase) was more than 200 µM each time. Regarding `CCCCNC(=O)C(=O)O` [Oxamic Acid/Ester, 12], the IC50 (in assay [1]; on L-lactate dehydrogenase) was more than 200 µM each time. As for `CCCCCCCCCCCCCCCCNC(=O)C(=O)O` [Oxamic Acid/Ester, 14], the IC50 is 150 µM in assay [1] and more than 200 µM on L-lactate dehydrogenase. The corresponding values for `Cc1ccc(CNC(=O)C(=O)O)o1` [Oxamic Acid/Ester, 15] are more than 200 µM and more than 200 µM. For `CN(Cc1ccco1)C(=O)C(=O)O` [Oxamic Acid/Ester, 16] the same measures were 186 µM and more than 200 µM. For `O=C(O)C(=O)NCc1cccc2ccccc12` [Oxamic Acid/Ester, 17] the same measures were more than 200 µM and 43 µM.

With `CC(C)c1ccc2c(c1)CCC1[C@](C)(CNC(=O)C(=O)O)CCC[C@]21C` (stereo partly drawn) [Oxamic Acid/Ester, 18], the IC50 in assay [1] was 20 µM; on L-lactate dehydrogenase, 59 µM. The corresponding values for `O=C(O)C(=O)N1CCN(Cc2ccccc2)CC1` [Oxamic Acid/Ester, 19] are 46 µM and 169 µM. For `O=C(O)C(=O)N1CCC(Cc2ccccc2)CC1` [Oxamic Acid/Ester, 20] the same measures were 59 µM and 101 µM.

As to `COCCNC(=O)C(=O)O` [Oxamic Acid/Ester, 21], the results for the IC50 (in assay [1]; against L-lactate dehydrogenase) were 25 µM and 14 µM, respectively. The corresponding values for `O=C(O)C(=O)N(Cc1ccccc1)c1ccccc1` [Oxamic Acid/Ester, 22] are more than 200 µM and more than 200 µM. For the compound `CCCCCCNC(=O)C(=O)O` [Oxamic Acid/Ester, 23], the IC50 in assay [1] turned out to be 133 µM; against L-lactate dehydrogenase it was 47 µM. Consider `CN(C(=O)C(=O)O)c1ccccc1` [Oxamic Acid/Ester, 24], for which the IC50 (in assay [1]; on L-lactate dehydrogenase) was more than 200 µM in each case.

Take `COCCCNC(=O)C(=O)O` [Oxamic Acid/Ester, 25]: the IC50 in assay [1] came to 31 µM; at L-lactate dehydrogenase, 43 µM.

Regarding `CCCCCCCCCNC(=O)C(=O)O` [Oxamic Acid/Ester, 26], the figures for the IC50 (in assay [1]; against L-lactate dehydrogenase) were more than 200 µM and 88 µM, respectively. The corresponding values for `O=C(O)C(=O)N1CCN(c2ccccc2)CC1` [Oxamic Acid/Ester, 27] are 32 µM and more than 200 µM. In the case of `CCCCCN(C)C(=O)C(=O)O` [Oxamic Acid/Ester, 28], the IC50 (in assay [1]; on L-lactate dehydrogenase) was more than 200 µM throughout. On to `C=CCN(C(=O)C(=O)O)C1CCCCC1` [Oxamic Acid/Ester, 29], for which the IC50 (in assay [1]; against L-lactate dehydrogenase) was more than 200 µM throughout.

`CN(Cc1ccccc1)C(=O)C(=O)O` [Oxamic Acid/Ester, 30]: the IC50 in assay [1] is 168 µM; against L-lactate dehydrogenase it was more than 200 µM. On to `CCC(C)NC(=O)C(=O)O` (stereo not drawn) [Oxamic Acid/Ester, 31], for which the IC50 (in assay [1]; on L-lactate dehydrogenase) was more than 200 µM throughout. Consider `O=C(O)C(=O)N(Cc1ccccc1)Cc1ccccc1` [Oxamic Acid/Ester, 32], for which the IC50 (in assay [1]; at L-lactate dehydrogenase) was more than 200 µM each time. Take `CC1CCCCN1C(=O)C(=O)O` (stereo not drawn) [Oxamic Acid/Ester, 33]: the 50% inhibitory concentration (IC50) in assay [1] is 43 µM; against L-lactate dehydrogenase, more than 200 µM.

Turning to `CC(C)CCNC(=O)C(=O)O` [Oxamic Acid/Ester, 34], the IC50 in assay [1] is more than 200 µM; on L-lactate dehydrogenase it was 157 µM. The corresponding values for `O=C(O)C(=O)NCC1CCCO1` (stereo not drawn) [Oxamic Acid/Ester, 35] are more than 200 µM and 188 µM. For `O=C(O)C(=O)NCCC(c1ccccc1)c1ccccc1` [Oxamic Acid/Ester, 36] the same measures were 90 µM and 35 µM. For `CSc1cccc(NC(=O)C(=O)O)c1` [Oxamic Acid/Ester, 37] the same measures were more than 200 µM and more than 200 µM. On to `CC(NC(=O)C(=O)O)c1cccc2c1CCCC2` (stereo not drawn) [Oxamic Acid/Ester, 38], for which the values for the IC50 (in assay [1]; against L-lactate dehydrogenase) were more than 200 µM and 146 µM, respectively. For the compound `O=C(O)C(=O)NCc1ccco1` [Oxamic Acid/Ester, 39], the IC50 (in assay [1]; at L-lactate dehydrogenase) was more than 200 µM each time. In the case of `CC(C)CNC(=O)C(=O)O` [Oxamic Acid/Ester, 40], the IC50 (in assay [1]; against L-lactate dehydrogenase) was more than 200 µM in each case. For the compound `O=C(O)C(=O)NCCCCc1ccccc1` [Oxamic Acid/Ester, 41], the values for the concentration for half-maximal inhibition (IC50) (in assay [1]; against L-lactate dehydrogenase) were 88 µM and 41 µM, respectively. As to `O=C(O)C(=O)NCCc1ccc(Br)cc1` [Oxamic Acid/Ester, 42], the IC50 was more than 200 µM in assay [1] and 51 µM against L-lactate dehydrogenase. Take `Cc1cc2c(C(C)C)c(O)c(O)c(C=O)c2c(O)c1-c1c(C)cc2c(C(C)C)c(O)c(O)c(C=O)c2c1O` [Tash 1]: the results for the IC50 (in assay [1]; against L-lactate dehydrogenase) were 6.9 µM and 3.97 µM, respectively.

Regarding `NC(=O)C(=O)O` [carbamoylformic acid], at L-lactate dehydrogenase, half-maximal inhibition (IC50) required 94.4 µM.

The IC50 is the concentration that gives 50% inhibition. A lower IC50 goes with higher potency.
